Results: patent US6967219B2, “Reversing or preventing premature vascular senescence” (Cornell Research Foundation, Inc., priority 2001, dated 2005)

Tests used:
[1] = test system: Human umbilical vein endothelial cells (HUVEC); experiment: SA β-galactosidase staining of HUVEC plated on glycated collagen (premature senescence); type: cell-based; details: for reduction/reversal of premature senescence across dilutions of glycated collagen: HUVEC on glycated collagen at different dilutions/concentrations of glycated matrix
Experimental: Detection of SA-β-galactosidase was carried out utilizing the histochemical staining method of Dimitri et al, Proc. Natl. Acad. Sci. USA 92, 9363-9367 as modified by Van der Loo, B., et al, Exp. Cell Res. 241, 309-315 (1998). SA-β-galactosidase is a known senescence marker. […] This phenomenon occurred in 12 week and 21 week-old diabetic rats, but was undetectable in age-matched Zucker lean rats (0/24 branches examined).
Human umbilical vein endothelial cells (HUVEC) after four passages were plated on glycated collagen with the addition of 0.1 mM hydroxy-L-arginine vis-a-vis the same concentration of L-arginine. Application was made on day 1, 2 hours after plating. The extent of SA β-galactosidase staining was evaluated on days 3 and 5 of culture on a glycated or native matrix. In addition, to study the reversibility process, HUVEC were plated on glycated collagen for three days (time sufficient to induce premature senescence), and hydroxy-L-arginine was added every 12 hours, starting on day 3, and the cells were examined on day 5.

[2] = test system: patient with end stage renal disease; experiment: Example I: patient with end stage renal disease on chronic hemodialysis treated with hydroxy-L-arginine; type: in vivo, human; details: 1-20 mg/kg thrice/day, 6 months later
Text: (In some cases, renal biopsy will be performed, which will directly disclose the deposition of AGE in the renal parenchyma and increased proportion of SA-beta-galactosidase-stained endothelial cells). […] In addition, the patient has their arterio-veinous fistula revised 3 times due to clotting and stenosis. The patient is also complaining of a non-healing foot ulcer and intermittent claudication, both signs of peripheral vascular disease.

[3] = test system: patient with type I (alternatively type 2) diabetes mellitus; experiment: Example II: poorly controlled diabetes mellitus patient treated with hydroxy-L-arginine; type: in vivo, human; details: 1-20 mg/kg thrice/day, 6 months later
Experimental: A patient with type I (alternatively, a patient with type 2) diabetes mellitus, past medical history of myocardial infarction, peripheral vascular disease, hypertension, proteinuria and non-healing foot ulcer, is receiving insulin, but patient is poorly compliant. Patient's fasting blood glucose level is 200 mg/dl. Additional laboratory findings include elevated Hgb Alc level (8.5%) as well as one of the following levels of AGE: elevated level of pentosidine (2.3 pmol/mg) or elevated level of Amadori serum albumin (41 U/ml). (In some cases, renal biopsy will be performed, which will directly disclose the deposition of AGE in the renal parenchyma and increased proportion of SA-beta-galactosidase-stained endothelial cells).

[4] = test system: patient diagnosed with Alzheimer's disease; experiment: Example III: patient with Alzheimer's disease treated with hydroxy-L-arginine; type: in vivo, human; details: 1-20 mg/kg thrice/day alone or with antioxidant agents and vitamins; two years later
Experimental: A person with no known medical conditions has been experiencing a sustained loss of short-term memory for the past three years. Their CBC, electrolytes and other plasma parameters of metabolic profile are within normal range. There is no vitamin deficiency, no abnormalities in liver function tests, and no previous history of cerebro-vascular accidents. […] Based on these findings the patient is diagnosed with Alzheimer's disease. Therapy with hydroxy-L-arginine is initiated at doses 1-20 mg/kg thrice/day alone or in combination with antioxidant agents and vitamins (e.g., ascorbate, alpha-tocopherol, vitamin B6, vitamin B12, folate (folic acid), carotenoids, coenzyme Q10, phytoestrogens (including isoflavonoids), selenium, butylated hydroxytoluene (BHT), butylated hydroxyanisole (BHA) and n-3 polyunsaturated fatty acids (PUFA)).

[5] = test system: saphenous vein endothelial cells seeded on artificial valve; experiment: Example V: artificial heart valve seeded with endothelial cells cultured with hydroxy-L-arginine, implanted; type: in vivo, human; details: cells cultured with 10-100 μg/ml at 35° C. for 2-3 weeks
Experimental: A person with a defective heart valve is being prepared for a surgical replacement of the valve with a prosthetic device. A saphenous vein is obtained to harvest endothelial cells for expansion and seeding on the surface of a artificial valve. Expanded endothelial cells are cultured in the medium containing hydroxy-L-arginine, 10-100 μg/ml at 35° C. for 2-3 weeks and cells are seeded on the valve in the continuous presence of the same concentration of hydroxy-L-arginine. Thus prepared, the artificial valve is implanted.

[6] = test system: saphenous vein endothelial cells seeded on artificial vascular graft; experiment: Example VI: artificial vascular graft seeded with endothelial cells cultured with hydroxy-L-arginine, implanted; type: in vivo, human; details: cells cultured with 10-100 μg/ml at 35° C. for 2-3 weeks
Experimental: A person with peripheral vascular disease is undergoing an elective femoral-to-popliteal bypass surgery utilizing an artificial vascular graft. A saphenous vein is obtained to harvest endothelial cells for expansion and seed on the surface of a graft. Expanded endothelial cells are cultured in the medium containing hydroxy-L-arginine, 10-100 μg/ml at 35° C. for 2-3 weeks, and cells are seeded on the graft in the continuous presence of the same concentration of hydroxy-L-arginine. Thus prepared, the vascular graft is implanted.

[7] = test system: patients of Examples I, II and III; experiment: Example IV: other hydroxyguanidines substituted for hydroxy-L-arginine in Examples I, II and III; type: in vivo, human; details: same dosage as in Examples I

SMILES	reduction/reversal of premature senescence across dilutions of glycated collagen [1]	development of premature senescence (SA β-galactosidase staining) ([1]; HUVEC grown on glycated collagen, 0.1 mM added to culture medium on day 1, 2 hours after plating, evaluated days 3 and 5)	coronary symptoms [2]	foot ulcer [2]	pentosidine level after treatment ([2]; baseline 2.5 pmol/mg)	Amadori serum albumin level after treatment ([2]; baseline 40 U/ml)	blood pressure ([2]; baseline 175/105 mmHg)	blood pressure [3]	coronary angiogram [3]	coronary symptoms [3]	foot ulcer [3]	pentosidine level after treatment ([3]; baseline 2.3 pmol/mg)	Amadori serum albumin level after treatment ([3]; baseline 41 U/ml)	symptoms related to the memory loss [4]	thrombotic and atheroembolic complications [5]	thrombotic and atheroembolic complications [6]	results when substituted for hydroxy-L-arginine at the same dosage [7]
N=C(N)NCCC[C@H](N)C(=O)O [L-arginine, reference compound]	failed to reverse premature senescence at higher concentrations of glycated matrix	–	–	–	–	–	–	–	–	–	–	–	–	–	–	–	–
N=C(NO)NCCC[C@H](N)C(=O)O [hydroxy-L-arginine, N^ω-hydroxy-L-arginine]	able to reduce premature senescence at all dilutions of glycated collagen	completely abolished the development of premature senescence	significant subjective improvement	healing of foot ulcer	1.7 pmol/mg	30 U/ml	normalization of blood pressure	normalization of blood pressure	either no further worsening of stenotic lesions or some degree of improvement	significant subjective improvement	healing of foot ulcer	1.7 pmol/mg	30 U/ml	no deterioration and a partial improvement	less thrombotic and atheroembolic complications	less thrombotic and atheroembolic complications	–
N=C(N)NO [hydroxyguanidine, Hydroxyguanidine]	–	–	–	–	–	–	–	–	–	–	–	–	–	–	–	–	Positive results similar to those obtained in Examples I, II and III
